# Reference: US20260034044A1, “A PRESERVATIVE COMPOSITION” (AnalytiCon Discovery - Zweigniederlassung der BRAIN Biotech …, priority 2022, published 2026)
# Columns and labels:
# Test in all cases: Antimicrobial activity (MIC)
# Format in all cases: cell-based
# [1] = tested on: Leuconostoc mesenteroides ssp. mesenteroides DSM 20343; conditions: DSM20343, potato dextrose broth pH 3.8, visual evaluation, read-out: Minimal Inhibitory Concentration (MIC)
# [2] = tested on: Alicyclobacillus acidoterrestris DSM 2498; conditions: DSM2498, potato dextrose broth pH 3.8, visual evaluation, read-out: Minimal Inhibitory Concentration (MIC)
# [3] = tested on: Porphyromonas gingivalis DSM 20709; conditions: DSM20709, potato dextrose broth pH 3.8, visual evaluation, read-out: Minimal Inhibitory Concentration (MIC)
# [4] = tested on: Leuconostoc lactis DSM 20202; conditions: DSM20202, potato dextrose broth pH 3.8, visual evaluation, read-out: Minimal Inhibitory Concentration (MIC)
# [5] = tested on: Byssochlamys fulva DSM 1808; conditions: Paecilomyces fulvus, DSM1808, potato dextrose broth pH 3.8, visual evaluation, read-out: Minimal Inhibitory Concentration (MIC)
# [6] = tested on: Penicillium expansum DSM 62841; conditions: DSM62841, potato dextrose broth pH 3.8, visual evaluation, read-out: Minimal Inhibitory Concentration (MIC)
# [7] = tested on: Brettanomyces naardenensis CBS 6115; conditions: CBS6115, potato dextrose broth pH 3.8, visual evaluation, read-out: Minimal Inhibitory Concentration (MIC)
# [8] = tested on: Pseudomonas fluorescens DSM50337; conditions: potato dextrose broth pH 3.8, visual evaluation, read-out: Minimal Inhibitory Concentration (MIC)
# [9] = tested on: Lactobacillus plantarum ssp. plantarum DSM 20174; conditions: Lactiplantibacillus plantarum, DSM20174, potato dextrose broth pH 3.8, visual evaluation, read-out: Minimal Inhibitory Concentration (MIC)
# [10] = tested on: Salmonella enterica ssp. enterica Ser. typhimurium DSM 17058; conditions: potato dextrose broth pH 3.8, visual evaluation, read-out: Minimal Inhibitory Concentration (MIC)
# [11] = tested on: Aspergillus brasiliensis DSM 1988; conditions: DSM1988, potato dextrose broth pH 3.8, visual evaluation, read-out: Minimal Inhibitory Concentration (MIC)
# [12] = tested on: Clostridium sporogenes ATCC 19404; conditions: ATCC19404, potato dextrose broth pH 3.8, visual evaluation, read-out: Minimal Inhibitory Concentration (MIC)
# Procedure: Compounds are dissolved at a concentration of 20 mg/ml using 100% DMSO. • Preculture: yeast and bacteria are plated on potato dextrose agar, resuspended in potato dextrose broth and CFU via OD measurement determined; adjusting CFU of the strain in PDB pH 3.8. • Preculture: for mycel forming fungi spores were directly used after thawing of cryopreserved stocks of known titre. • Final titre used for the assay: Yeast strains 5*10^3 CFU/ml, Bacteria 1*10^6 CFU/ml, Fungi (spores) 5*10^4 CFU/ml • Potato dextrose broth pH 3.8 was used as assay matrix • 500 ppm (0.05%) of the compounds were screened (final DMSO 2.5% (v/v)) • Volume: 100 μl in 96-well format • Positive controls: potassium sorbate, sodium benzoate & triclosan • 28° C. to 30° C., static incubation • Incubation time depending on spoilage organism between 2 and 8 days • Visual evaluation (per eye, for fungi with binocular magnification) Antimicrobial activities are reported in Table 1.
# [13] = tested on: Yarrowia lipolytica DSM 70561; conditions: DSM70561, potato dextrose broth pH 3.8, visual evaluation, read-out: Minimal Inhibitory Concentration (MIC)
# [14] = tested on: Zygosaccharomyces rouxii DSM 7525; conditions: DSM7525, potato dextrose broth pH 3.8, visual evaluation, read-out: Minimal Inhibitory Concentration (MIC)
# [15] = tested on: Cladosporium cladosporioides DSM19653; conditions: potato dextrose broth pH 3.8, visual evaluation, read-out: Minimal Inhibitory Concentration (MIC)
# [16] = tested on: Phanerochaete chrysosporium DSM 1556; conditions: Phanerodontia chrysosporium, DSM1556, potato dextrose broth pH 3.8, visual evaluation, read-out: Minimal Inhibitory Concentration (MIC)
# [17] = tested on: Enterococcus faecalis ATCC 7080; conditions: ATCC7080, potato dextrose broth pH 3.8, visual evaluation, read-out: Minimal Inhibitory Concentration (MIC)
# [18] = tested on: Corynebacterium xerosis DSM 20743; conditions: DSM20743, potato dextrose broth pH 3.8, visual evaluation, read-out: Minimal Inhibitory Concentration (MIC)
# [19] = tested on: Bacillus licheniformis DSM 13; conditions: DSM13, potato dextrose broth pH 3.8, visual evaluation, read-out: Minimal Inhibitory Concentration (MIC)
# [20] = tested on: Candida albicans ATCC10231; conditions: potato dextrose broth pH 3.8, visual evaluation, read-out: Minimal Inhibitory Concentration (MIC)
# [21] = tested on: Lactobacillus paracasei ssp. paracasei DSM 46331; conditions: Lacticaseibacillus paracasei, DSM46331, potato dextrose broth pH 3.8, visual evaluation, read-out: Minimal Inhibitory Concentration (MIC)
# [22] = tested on: Enterobacter cloacae DSM 6234; conditions: DSM6234, potato dextrose broth pH 3.8, visual evaluation, read-out: Minimal Inhibitory Concentration (MIC)
# [23] = tested on: Gluconacetobacter liquefaciens DSM 5603; conditions: DSM5603, potato dextrose broth pH 3.8, visual evaluation, read-out: Minimal Inhibitory Concentration (MIC)
# [24] = tested on: Streptococcus mutans DSM 20523; conditions: DSM20523, potato dextrose broth pH 3.8, visual evaluation, read-out: Minimal Inhibitory Concentration (MIC)
# [25] = tested on: Saccharomyces cerevisiae DSM 2548; conditions: DSM2548, potato dextrose broth pH 3.8, visual evaluation, read-out: Minimal Inhibitory Concentration (MIC)
SMILES,MIC [1] [µg/mL],MIC [2] [µg/mL],MIC [3] [µg/mL],MIC [4] [µg/mL],MIC [5] [µg/mL],MIC [6] [µg/mL],MIC [7] [µg/mL],MIC [8] [µg/mL],MIC [9] [µg/mL],MIC [10] [µg/mL],MIC [11] [µg/mL],MIC [12] [µg/mL],MIC [13] [µg/mL],MIC [14] [µg/mL],MIC [15] [µg/mL],MIC [16] [µg/mL],MIC [17] [µg/mL],MIC [18] [µg/mL],MIC [19] [µg/mL],MIC [20] [µg/mL],also measured
C[C@H]1CC[C@@]2(OC1)O[C@H]1CC3C4CC[C@H]5C[C@@H](O[C@@H]6O[C@H](CO)[C@H](O[C@@H]7O[C@H](CO)[C@@H](O)[C@H](O[C@@H]8OC[C@@H](O)[C@H](O)[C@H]8O)[C@H]7O[C@@H]7O[C@H](CO)[C@@H](O)[C@H](O)[C@H]7O)[C@H](O)[C@H]6O)[C@H](O)C[C@]5(C)C4=CC(=O)[C@]3(C)[C@H]1[C@@H]2C (stereo partly shown) [A],> 80,40,> 80,80,> 80,> 500,> 80,> 80,40,> 80,> 80,80,> 80,500,> 80,> 80,> 80,> 80,> 80,> 80,MIC [21]: > 80 µg/mL; MIC [22]: > 80 µg/mL; MIC [23]: 140 µg/mL; MIC [24]: > 80 µg/mL; MIC [25]: > 80 µg/mL
C[C@@H]1CC[C@@]2(OC1)O[C@H]1CC3C4CC=C5CC(O[C@@H]6O[C@H](CO)[C@@H](O[C@@H]7O[C@@H](C)[C@H](O[C@@H]8O[C@@H](C)[C@H](O)[C@@H](O)[C@H]8O)[C@@H](O)[C@H]7O)[C@H](O)[C@H]6O[C@@H]6O[C@@H](C)[C@H](O)[C@@H](O)[C@H]6O)CC[C@]5(C)C4CC[C@]3(C)[C@@]1(O)[C@@H]2C (stereo partly shown) [B],> 80,140,> 80,> 80,> 80,> 500,> 80,> 80,400,> 80,> 80,80,> 80,500,> 80,> 80,> 80,> 80,> 80,> 80,MIC [21]: > 80 µg/mL; MIC [22]: > 80 µg/mL; MIC [23]: 40 µg/mL; MIC [24]: > 80 µg/mL; MIC [25]: > 80 µg/mL
CC1CC[C@@]2(OC1)O[C@H]1CC3C4CC=C5C[C@@H](O[C@@H]6O[C@H](CO)[C@@H](O[C@@H]7O[C@@H](C)[C@H](O)[C@@H](O)[C@H]7O)[C@H](O)[C@H]6O[C@@H]6O[C@@H](C)[C@H](O)[C@@H](O)[C@H]6O)CC[C@]5(C)C4CC[C@]3(C)[C@@]1(O)[C@@H]2C (stereo partly shown) [C],> 80,80,> 80,> 80,> 80,> 500,> 80,> 80,400,> 80,> 80,80,> 80,500,> 80,> 80,> 80,> 80,> 80,> 80,MIC [21]: > 80 µg/mL; MIC [22]: > 80 µg/mL; MIC [23]: 40 µg/mL; MIC [24]: > 80 µg/mL; MIC [25]: > 80 µg/mL
C[C@H]1CC[C@@]2(OC1)O[C@H]1CC3C4CC[C@H]5C[C@@H](O[C@@H]6O[C@H](CO)[C@H](O[C@@H]7O[C@H](CO)[C@@H](O)[C@H](O)[C@H]7O[C@@H]7O[C@H](CO)[C@@H](O)[C@H](O)[C@H]7O)[C@H](O)[C@H]6O)[C@H](O)C[C@]5(C)C4=CC(=O)[C@]3(C)[C@H]1[C@@H]2C (stereo partly shown) [D],> 80,40,> 80,80,> 80,> 500,> 80,> 80,40,> 80,> 80,80,> 80,500,> 80,> 80,> 80,> 80,> 80,> 80,MIC [21]: > 80 µg/mL; MIC [22]: > 80 µg/mL; MIC [23]: 140 µg/mL; MIC [24]: > 80 µg/mL; MIC [25]: > 80 µg/mL
